Measurements reported in US20240116985A1, “STAPLED PEPTIDES AND METHODS THEREOF” (priority 2020, published 2024).

The molecules below were run against T1, full-length beta-Catenin (Uniprot ID P35222) (Homo sapiens, UniProt P35222) (assay: Fluorescence polarization IC50 (beta-catenin / 5FAM-TCF4 10-53 competition)). Conditions: fluorescence polarization; read-out: beta-Catenin FP IC50.
T1 construct: 10 nM full-length beta-Catenin (Uniprot ID P35222)
T1 sequence (P35222 1-781): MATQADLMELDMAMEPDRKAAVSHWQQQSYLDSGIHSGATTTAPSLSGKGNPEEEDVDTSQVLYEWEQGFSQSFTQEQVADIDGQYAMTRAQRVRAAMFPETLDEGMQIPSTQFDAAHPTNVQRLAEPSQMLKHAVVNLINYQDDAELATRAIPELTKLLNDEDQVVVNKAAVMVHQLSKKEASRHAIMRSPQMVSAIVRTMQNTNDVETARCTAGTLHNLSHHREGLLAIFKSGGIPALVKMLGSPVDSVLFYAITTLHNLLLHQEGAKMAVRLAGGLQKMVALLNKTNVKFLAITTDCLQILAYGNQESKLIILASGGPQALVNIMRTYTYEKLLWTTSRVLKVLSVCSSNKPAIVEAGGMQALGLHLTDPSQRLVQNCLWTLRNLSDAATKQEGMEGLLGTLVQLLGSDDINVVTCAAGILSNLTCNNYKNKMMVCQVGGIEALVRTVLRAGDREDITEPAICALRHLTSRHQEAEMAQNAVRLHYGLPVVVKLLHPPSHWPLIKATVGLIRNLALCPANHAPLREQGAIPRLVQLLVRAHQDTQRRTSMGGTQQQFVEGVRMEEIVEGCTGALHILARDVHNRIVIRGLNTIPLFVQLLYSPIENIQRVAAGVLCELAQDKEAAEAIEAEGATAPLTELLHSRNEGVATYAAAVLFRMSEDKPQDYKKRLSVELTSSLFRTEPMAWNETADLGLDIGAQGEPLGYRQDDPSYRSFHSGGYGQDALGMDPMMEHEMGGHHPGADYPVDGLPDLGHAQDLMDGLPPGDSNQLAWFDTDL
Assay type: binding

Row | SMILES | IC50 [µM]
1 | CC(=O)N1CCC[C@]12CC=CCCCC1(CCCC=CCCCOC(=O)N3CC[C@@](C(=O)N[C@@H](Cc4ccsc4)C(=O)N[C@@H](Cc4c[nH]c5ncccc45)C(=O)N[C@@H](CCC(N)=O)C(N)=O)(C3)NC(=O)[C@H](CC(C)C)NC(=O)[C@H](Cc3ccccc3)NC(=O)[C@H](C)NC(=O)[C@H](C)NC(=O)[C@H](CC(=O)O)NC(=O)[C@H](CC(=O)O)NC1=O)NC(=O)[C@H](CC(C)(C)C)NC(=O)[C@H](CC(=O)O)NC2=O (stereo partly drawn) [I-2181, Ac-PL3-Asp-Npg-B5-Asp-Asp-Ala-Ala-Phe-Leu-PyrS2-3Thi-7AzaW-Gln-NH2] | 2.88
2 | CC(=O)N1CCC[C@]12CC=CCCCC1(CCCC=CCCCOC(=O)N3CC[C@@](C(=O)N[C@@H](Cc4ccsc4)C(=O)N[C@@H](Cc4csc5ccccc45)C(N)=O)(C3)NC(=O)[C@H](CC(N)=O)NC(=O)[C@H](Cc3ccccc3)NC(=O)[C@H](C)NC(=O)[C@H](C)NC(=O)[C@H]([C@@H](C)O)NC(=O)[C@H](CC(N)=O)NC1=O)NC(=O)[C@H](CC(C)(C)C)NC(=O)[C@H](CC(=O)O)NC2=O (stereo partly drawn) [I-1742, Ac-PL3-Asp-Npg-B5-Asn-Thr-Ala-Ala-Phe-Asn-PyrS2-3Thi-BztA-NH2] | 0.867
3 | CC(=O)N1CCC[C@]12CC=CCCCC1(CCCC=CCCCOC(=O)N3CC[C@@](C(=O)N[C@@H](Cc4ccccc4)C(=O)N[C@@H](Cc4csc5ccccc45)C(=O)N[C@@H](CCC(N)=O)C(N)=O)(C3)NC(=O)[C@H](CC(C)C)NC(=O)[C@H](Cc3ccccc3)NC(=O)[C@H](C)NC(=O)[C@H](CCCCNC(C)C)NC(=O)[C@H](CCCCN)NC(=O)[C@H](CC(=O)O)NC1=O)NC(=O)[C@H](CC1CCCCC1)NC(=O)[C@H](CC(N)=O)NC2=O (stereo partly drawn) [I-2346, Ac-PL3-Asn-Cha-B5-Asp-Lys-iPrLys-Ala-Phe-Leu-PyrS2-Phe-BztA-Gln-NH2] | 0.422
4 | CC(=O)N1CCC[C@]12CC=CCCCC1(CCCC=CCCCOC(=O)N3CC[C@@](C(=O)N[C@@H](Cc4ccsc4)C(=O)N[C@@H](Cc4csc5ccccc45)C(=O)N[C@@H](CCC(N)=O)C(N)=O)(C3)NC(=O)[C@H](CC(C)C)NC(=O)[C@H](Cc3ccccc3)NC(=O)[C@H](C)NC(=O)[C@H](C)NC(=O)[C@H](CC(=O)O)NC(=O)[C@H](CC(=O)S)NC1=O)NC(=O)[C@H](CC(C)(C)C)NC(=O)[C@H](CC(=O)O)NC2=O (stereo partly drawn) [I-1945, Ac-PL3-Asp-Npg-B5-AspSH-Asp-Ala-Ala-Phe-Leu-PyrS2-3Thi-BztA-Gln-NH2] | 0.918
5 | CC(C)C[C@H](NC(=O)[C@]12CCN(C1)C(=O)OCCCCCCCCC1(CCCCCCCCC(=O)N3CCC[C@@]3(C)C(=O)N[C@@H](CC(=O)O)C(=O)N1)C(=O)N[C@@H](C)C(=O)N[C@@H](CC(=O)O)C(=O)N[C@@H](CC(=O)O)C(=O)N[C@@H](C)C(=O)N[C@@H](C)C(=O)N[C@@H](Cc1ccccc1)C(=O)N2)C(=O)N[C@@H](Cc1ccsc1)C(=O)N[C@@H](Cc1csc2ccccc12)C(=O)N[C@@H](CCC(N)=O)C(N)=O (stereo partly drawn) [I-2600, 5hexenyl-MePro-Asp-B5-Ala-Asp-Asp-Ala-Ala-Phe-PyrS2-Leu-3Thi-BztA-Gln-NH2] | 0.923
6 | CC(=O)N1CCC[C@]12CC=CCCC1(CCC=CCCOC(=O)N3CC[C@@](C(=O)N[C@@H](Cc4ccsc4)C(=O)N[C@@H](Cc4csc5ccccc45)C(=O)N[C@@H](CCC(N)=O)C(N)=O)(C3)NC(=O)[C@H](CC(C)C)NC(=O)[C@H](Cc3ccccc3)NC(=O)[C@H](C)NC(=O)[C@H](C)NC(=O)[C@H](CC(=O)O)NC(=O)[C@H](CC(=O)O)NC1=O)NC(=O)[C@H](CC(C)(C)C)NC(=O)[C@H](CC(=O)O)NC2=O (stereo partly drawn) [I-1970, Ac-PL3-Asp-Npg-B4-Asp-Asp-Ala-Ala-Phe-Leu-PyrS1-3Thi-BztA-Gln-NH2] | 0.441
7 | CC(=O)N1CCC[C@]12CC=CCCCC1(CCCC=CCCCOC(=O)N3CC[C@@](C(=O)N[C@@H](Cc4ccsc4)C(=O)N[C@@H](Cc4csc5ccccc45)C(=O)N[C@@H](CC(N)=O)C(N)=O)(C3)NC(=O)[C@H](CC(N)=O)NC(=O)[C@H](Cc3ccccc3)NC(=O)[C@H](C)NC(=O)[C@H](C)NC(=O)[C@H]([C@@H](C)O)NC(=O)[C@H](CC(N)=O)NC1=O)NC(=O)[C@H](CC(C)(C)C)NC(=O)[C@H](CC(=O)O)NC2=O (stereo partly drawn) [I-1746, Ac-PL3-Asp-Npg-B5-Asn-Thr-Ala-Ala-Phe-Asn-PyrS2-3Thi-BztA-Asn-NH2] | 0.235

Molecules with a lower IC50, results first:

Row | IC50 [µM] | SMILES
8 | 0.145 | CC(=O)N1CCC[C@]12CC=CCCCC1(CCCC=CCCCOC(=O)N3CC[C@@](C(=O)N[C@@H](Cc4ccsc4)C(=O)N[C@@H](Cc4csc5ccccc45)C(=O)N[C@@H](Cc4ccccc4)C(N)=O)(C3)NC(=O)[C@H](CC(C)C)NC(=O)[C@H](Cc3ccccc3)NC(=O)[C@H](C)NC(=O)[C@H](C)NC(=O)[C@H](CN(CC(=O)O)CC(F)(F)F)NC(=O)[C@H](CC(=O)O)NC1=O)NC(=O)[C@H](CC(C)(C)C)NC(=O)[C@H](CC(=O)O)NC2=O (stereo partly drawn) [I-1749, Ac-PL3-Asp-Npg-B5-Asp-TfeGA-Ala-Ala-Phe-Leu-PyrS2-3Thi-BztA-Phe-NH2]
9 | 0.011 | CC(=O)N1CCC[C@]12CC=CCCCC1(CCCC=CCCCOC(=O)N3CC[C@@](C(=O)N[C@@H](Cc4ccccc4Cl)C(=O)N[C@@H](Cc4csc5ccccc45)C(=O)N[C@@H](CCC(N)=O)C(N)=O)(C3)NC(=O)[C@H]([C@@H](C)O)NC(=O)[C@H](Cc3ccccc3)NC(=O)[C@H](C)NC(=O)CNC(=O)[C@H](CN(CC(=O)O)CC(F)(F)F)NC(=O)[C@H](CC(=O)O)NC1=O)NC(=O)[C@H](CC(C)(C)C)NC(=O)[C@H](CC(=O)O)NC2=O (stereo partly drawn) [I-1690, Ac-PL3-Asp-Npg-B5-Asp-TfeGA-Gly-Ala-Phe-Thr-PyrS2-2C1F-BztA-Gln-NH2]
10 | 0.066 | COC(=O)N1CCC[C@]12CC=CCCCC1(CCCC=CCCCOC(=O)N3CC[C@@](C(=O)N[C@@H](Cc4ccsc4)C(=O)N[C@@H](Cc4csc5ccccc45)C(=O)N[C@@H](Cc4c[nH]cn4)C(N)=O)(C3)NC(=O)[C@H](CCC(N)=O)NC(=O)[C@H](Cc3ccccc3)NC(=O)[C@H](C)NC(=O)[C@H](C)NC(=O)[C@H](CC(=O)O)NC(=O)[C@H](CC(=O)O)NC1=O)NC(=O)[C@H](CC(C)(C)C)NC(=O)[C@H](CC(=O)O)NC2=O (stereo partly drawn) [I-2362, CO2Me-PL3-Asp-Npg-B5-Asp-Asp-Ala-Ala-Phe-Gln-PyrS2-3Thi-BztA-His-NH2]
11 | 0.008 | CC(=O)N1CCC[C@]12CC=CCCCC1(CCCC=CCCCOC(=O)N3CC[C@@](C(=O)N[C@@H](Cc4ccsc4)C(=O)N[C@@H](Cc4csc5ccccc45)C(=O)N[C@@H](Cc4c[nH]cn4)C(=O)N[C@@H](CCCCN)C(N)=O)(C3)NC(=O)[C@H](CCC(N)=O)NC(=O)[C@H](Cc3ccccc3)NC(=O)[C@H](C)NC(=O)[C@H](C)NC(=O)[C@H](CC(=O)O)NC(=O)[C@H](CC(=O)O)NC1=O)NC(=O)[C@H](CC(C)(C)C)NC(=O)[C@H](CC(=O)O)NC2=O (stereo partly drawn) [I-2230, Ac-PL3-Asp-Npg-B5-Asp-Asp-Ala-Ala-Phe-Gln-PyrS2-3thi-BztA-His-Lys-NH2]
12 | 0.036 | CC(=O)N1CCC[C@]12CC=CCCCC1(CCCC=CCCCOC(=O)N3CC[C@@](C(=O)N[C@@H](Cc4ccsc4)C(=O)N[C@@H](Cc4csc5ccccc45)C(=O)N[C@@H](CCC(N)=O)C(N)=O)(C3)NC(=O)[C@H](CC(N)=O)NC(=O)[C@H](Cc3cccc(C(=O)O)c3)NC(=O)[C@H](C)NC(=O)[C@H](C)NC(=O)[C@H](Cc3c[nH]c4ccccc34)NC(=O)[C@H](CC(=O)O)NC1=O)NC(=O)[C@H](CC(C)(C)C)NC(=O)[C@H](CC(=O)O)NC2=O (stereo partly drawn) [I-2127, Ac-PL3-Asp-Npg-B5-Asp-Trp-Ala-Ala-3COOHF-Asn-PyrS2-3Thi-BztA-Gln-NH2]
